Results reported in patent US6994987B1, “Process for producing tripeptides” (Calpis Co., Ltd., priority 1999, dated 2006).
No end group written: not given here.

Columns and labels:
[1] = system: fraction 4 (peptidase derived from Lactobacillus helveticus); assay: Reaction of fraction 4 with chemically synthesized intermediate peptides as substrates; format: biochemical; settings: substrate peptide reacted with fraction 4, HPLC
Protocol: A milk medium containing 9 wt % skim milk was inoculated with lactic acid bacteria Lactobacillus helveticus CM4 strain (deposited at National Institute of Bioscience and Human-Technology (1-3, Higashi 1 chome Tsukuba-shi Ibaraki-ken 305, Japan) under deposition number FEFM BP-6060 on Aug. 15, 1997) (referred to hereinbelow as CM4 strain). The bacteria were cultured at 37° C. for 24 hours. The CM4 strain has been accorded the aforementioned accession number under the Budapest Treaty on the International Recognition of the Deposit of Microorganisms for the Purposes of Patent Procedure. All restrictions on the availability to the public of this strain will be irrevocably removed upon the granting of a patent. To 500 ml of a fresh 9 wt % milk medium, cultured mixture was added at 5 wt %. […] was performed at 37° C. and at the pH of 6.5. Five hours after the start of pH stat culturing, sodium citrate was added so that the final concentration thereof became 2 wt %. The mixture was stirred for 30 minutes at room temperature. After confirming that the cultured liquid became clear, cell bodies were collected by centrifugation at 5000 g for 10 minutes. The cell bodies were washed twice with 50 mM phosphate buffer containing 150 mM NaCl pH 6.8, and suspended in 20 ml of 50 mM tris-Cl pH 8.0, and then crushed with an ultrasonic crusher (model 5203, manufactured by Ohtake Works Co.). Centrifugation at 15000 g was performed for 10 minutes for removing the precipitant and collecting the supernatant as a crude extract. 5 ml of the crude extract was passed through 1 ml of DEAE-sepharose column (manufactured by Pharmacia Corporation) that has been pre-equilibrated with the tris buffer. The column was washed with 5 ml of the tris buffer and then sequentially washed with 3 ml of tris buffers containing 50 mM, 100 mM, 150 mM, 200 mM, 300 mM and 500 mM NaCl, for fractionation.
An intermediate peptide Val-Pro-Pro-Phe-Leu was chemically synthesized. The synthesized peptide was dissolved at 10 μg/ml in 100 mM phosphate buffer (pH 6.1). This solution and one of the fractions 1 to 6 were mixed at the volume ratio of 9:1, and reacted at 37° C. for 30 minutes.
Further, it was confirmed that the tripeptide Ile-Pro-Pro was produced from the peptides Ile-Pro-Pro-Leu-Thr-Gln-Thr and Ile-Pro-Pro-Leu-Thr.

[2] = system: Aminipeptidase I + Carboxypeptidase Y; assay: Reactivity of peptidase formulations against synthetic peptides: aminopeptidase I + carboxypeptidase Y; format: biochemical; settings: phosphate buffer pH 5.3, 37° C. 3 hours, HPLC
Protocol: (§1) Peptides shown in Table 1 were chemically synthesized. […] All of these synthetic peptides were synthesized with the automatic peptide synthesizing machine PPSM-8 (manufactured by Shimadzu Corporation).
(§2) Each synthetic peptide was dissolved at the concentration of 10 μg/ml in 100 mM phosphate buffer pH 5.3 as to Experiments 1-1 to 1-4, 1-10 to 1-12, 1-16 and 1-21, or in 50 mM Tris-HCl buffer pH 8.0 as to other Experiments. Each of various peptidase formulations shown in Table 1 was then added so that the concentration thereof became 0.01 μg/ml, and the reaction was performed at 37° C. for 3 hours. After the enzyme reaction, the mixture was analyzed by the reverse phase high performance liquid chromatography (HPLC). […] The fractions of the detected peak were collected and amino acid sequence analysis was performed by the automatic peptide analyzer model PPSQ-10 (manufactured by Shimadzu Corporation). […]

Carboxypeptidase Y = target: T1, Carboxypeptidase Y (Saccharomyces cerevisiae, UniProt P00729); assay: Reactivity of peptidase formulations against synthetic peptides: carboxypeptidase Y alone; format: biochemical; settings: for Existence of IPP or VPP peaks: no aminopeptidase, carboxypeptidase Y, phosphate buffer pH 5.3, 37° C. 3 hours, HPLC
T1 construct: purchased Sigma Chemical Co
T1 sequence (P00729 112-532): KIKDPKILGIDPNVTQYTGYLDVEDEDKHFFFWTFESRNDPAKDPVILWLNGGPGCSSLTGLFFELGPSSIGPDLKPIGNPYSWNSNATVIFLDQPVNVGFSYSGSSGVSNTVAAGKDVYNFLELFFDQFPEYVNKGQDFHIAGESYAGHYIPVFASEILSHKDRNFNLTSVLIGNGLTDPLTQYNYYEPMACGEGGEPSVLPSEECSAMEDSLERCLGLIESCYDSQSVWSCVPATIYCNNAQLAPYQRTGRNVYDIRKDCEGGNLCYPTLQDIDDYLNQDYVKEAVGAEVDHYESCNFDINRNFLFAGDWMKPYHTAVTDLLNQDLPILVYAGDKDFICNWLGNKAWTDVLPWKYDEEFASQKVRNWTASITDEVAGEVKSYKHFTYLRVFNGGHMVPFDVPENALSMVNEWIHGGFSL
Protocol: as §1, §2

[3] = system: spontaneous hypertension rats (SHR); settings: known in the prior art; cited from earlier work
hypertensive patients = settings: known in the prior art; cited from earlier work
[4] = reported in JP-A-11-100328; cited from earlier work
[5] = target: angiotensin converting enzyme (ACE) (Homo sapiens, UniProt P12821); settings: known in the prior art; cited from earlier work
Chain of angiotensin converting enzyme (ACE) (P12821 30-1306, species assumed): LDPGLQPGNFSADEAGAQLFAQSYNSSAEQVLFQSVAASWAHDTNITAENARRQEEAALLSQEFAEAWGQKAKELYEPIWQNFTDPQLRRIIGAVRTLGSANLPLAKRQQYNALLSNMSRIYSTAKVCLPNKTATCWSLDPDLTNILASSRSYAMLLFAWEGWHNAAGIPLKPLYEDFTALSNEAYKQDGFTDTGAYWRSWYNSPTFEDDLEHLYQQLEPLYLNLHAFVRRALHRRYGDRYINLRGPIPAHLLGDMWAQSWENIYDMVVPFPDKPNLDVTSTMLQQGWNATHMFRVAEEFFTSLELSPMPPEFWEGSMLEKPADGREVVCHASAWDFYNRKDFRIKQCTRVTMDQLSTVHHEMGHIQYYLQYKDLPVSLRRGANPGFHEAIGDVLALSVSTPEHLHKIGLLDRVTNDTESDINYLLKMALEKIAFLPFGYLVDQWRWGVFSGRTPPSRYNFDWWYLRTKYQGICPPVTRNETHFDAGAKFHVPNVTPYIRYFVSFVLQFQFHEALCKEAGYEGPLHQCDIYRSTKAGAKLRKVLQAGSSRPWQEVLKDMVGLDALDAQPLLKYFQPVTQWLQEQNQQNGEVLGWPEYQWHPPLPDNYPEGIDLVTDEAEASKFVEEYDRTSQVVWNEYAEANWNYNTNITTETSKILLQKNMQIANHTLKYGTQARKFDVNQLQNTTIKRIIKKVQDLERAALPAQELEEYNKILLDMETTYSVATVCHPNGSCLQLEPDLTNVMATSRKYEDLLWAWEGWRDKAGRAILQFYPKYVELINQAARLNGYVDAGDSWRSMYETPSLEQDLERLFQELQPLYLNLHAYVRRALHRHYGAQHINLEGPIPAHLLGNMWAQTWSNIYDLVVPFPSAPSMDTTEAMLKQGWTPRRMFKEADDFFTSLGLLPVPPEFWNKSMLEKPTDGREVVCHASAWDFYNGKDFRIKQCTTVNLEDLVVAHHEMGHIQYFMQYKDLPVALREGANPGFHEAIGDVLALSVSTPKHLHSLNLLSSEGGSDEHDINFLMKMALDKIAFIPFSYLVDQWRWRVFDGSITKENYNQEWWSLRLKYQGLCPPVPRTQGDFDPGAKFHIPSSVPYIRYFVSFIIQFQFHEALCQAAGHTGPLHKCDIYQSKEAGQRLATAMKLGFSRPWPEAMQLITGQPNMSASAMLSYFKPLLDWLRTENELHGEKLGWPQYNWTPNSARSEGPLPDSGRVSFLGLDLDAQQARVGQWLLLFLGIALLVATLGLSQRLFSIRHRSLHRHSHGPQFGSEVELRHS

[6] = system: synthetic peptide consisting of the 28 amino acids (SEQ ID NO: 28); assay: Two step reaction of proteinase and fraction 4 on the 28 amino acid synthetic peptide; format: biochemical; settings: proteinase 0.1 μg/ml on 28-mer 10 μg/ml, pH 6.1, 37° C. 5 hours, heat inactivation, then fraction 4; HPLC
Protocol: To 10 μg/ml of the synthetic peptide consisting of the 28 amino acids that is the same as the one used in Experiment 2 (in 100 mM phosphate buffer pH 6.1), each of the commercially available proteinase enzymes for food processing shown in Table 4 was added at 0.1 μg/ml. The mixture was reacted at 37° C. for 5 hours. After finishing the reaction, the reacted liquid was heated at 100° C. for 5 minutes for inactivating the proteinase, and then reacted with the fraction 4 obtained in Experiment 4.

Val Pro Pro Phe Leu (VPPFL)
Peptide produced [1]: Val Pro Pro | Peptide produced ([1]; listed as Val-Pro-Pro-Phe-Leu): Val-Pro-pro

VVVPPFLQ
Existence of IPP or VPP peaks [2]: VPP | Existence of IPP or VPP peaks ([2]; listed as Val-Val-Val-Pro-Pro-Phe-Leu-Gln): production of the tripeptides Ile-Pro-Pro or Val-Pro-Pro was also recognized

Val Pro Pro Phe (VPPF)
Existence of IPP or VPP peaks (Carboxypeptidase Y): VPP

Val Pro Pro (VPP) [Val-Pro-Pro, tripeptide produced by the method]
anti-hypertensive activity on spontaneous hypertension rats (SHR) [3]: strong anti-hypertensive activity | anti-hypertensive effect on hypertensive patients (hypertensive patients): anti-hypertensive effect | anti-stress activity [4]: anti-stress activity

QNIPPLTQT
Existence of IPP or VPP peaks [2]: IPP | Existence of IPP or VPP peaks ([2]; listed as Gln-Asn-Ile-Pro-Pro-Leu-Thr-Gln-Thr): production of the tripeptides Ile-Pro-Pro or Val-Pro-Pro was also recognized

IPPLTQT
Peptide produced [1]: Ile Pro Pro | Peptide produced ([1]; listed as Ile-Pro-Pro-Leu-Thr-Gln-Thr): Ile-Pro-Pro | Existence of IPP or VPP peaks (Carboxypeptidase Y): IPP

Leu-Pro-Pro [reference compound]
ACE inhibitory activity [5]: ACE inhibitory activity

Ile Pro Pro Leu Thr (IPPLT)
Peptide produced [1]: Ile Pro Pro | Peptide produced ([1]; listed as Ile-Pro-Pro-Leu-Thr): Ile-Pro-Pro

Pepsin
Production of the tripeptides Ile-Pro-Pro and Val-Pro-Pro [6]: No

Ile Pro Pro (IPP) [Ile-Pro-Pro, tripeptide produced by the method]
ACE inhibitory activity [5]: strong | anti-hypertensive activity on spontaneous hypertension rats (SHR) [3]: strong anti-hypertensive activity | anti-hypertensive effect on hypertensive patients (hypertensive patients): anti-hypertensive effect | anti-stress activity [4]: anti-stress activity

VPPFLQ
Peptide produced [1]: Val Pro Pro | Peptide produced ([1]; listed as Val-Pro-Pro-Phe-Leu-Gln): Val-Pro-pro | Existence of IPP or VPP peaks (Carboxypeptidase Y): VPP

B1: carboxy peptidase Y: Carboxypeptidase Y (manufactured by Sigma Chemical Co.) (protein, UniProt P00729 112-532, looked up)
Carboxypeptidase Y: T1 sequence (P00729 112-532)
Bond cleavage by the enzyme (in words) (Carboxypeptidase Y; reaction at pH 5.3): capable of effectively cleave the bond between Pro and Leu in Pro-Pro-Leu and the bond between Pro and Phe in Pro-Pro-Phe

B2: Subtilisin Carlsberg: proteinase, Bacillus licheniformis, Sigma Chemical Co. (protein, UniProt P00780 106-379, looked up)
Subtilisin Carlsberg: AQTVPYGIPLIKADKVQAQGFKGANVKVAVLDTGIQASHPDLNVVGGASFVAGEAYNTDGNGHGTHVAGTVAALDNTTGVLGVAPSVSLYAVKVLNSSGSGSYSGIVSGIEWATTNGMDVINMSLGGASGSTAMKQAVDNAYAKGVVVVAAAGNSGSSGNTNTIGYPAKYDSVIAVGAVDSNSNRASFSSVGAELEVMAPGAGVYSTYPTNTYATLNGTSMASPHVAGAAALILSKHPNLSASQVRNRLSSTATYLGSSFYYGKGLINVEAAAQ
Production of the tripeptides Ile-Pro-Pro and Val-Pro-Pro [6]: No

B3: Subtilisin BPN: proteinase, Bacillus amyloliquefaciens, Sigma Chemical Co. (protein, UniProt P00782 108-382, looked up)
Subtilisin BPN': AQSVPYGVSQIKAPALHSQGYTGSNVKVAVIDSGIDSSHPDLKVAGGASMVPSETNPFQDNNSHGTHVAGTVAALNNSIGVLGVAPSASLYAVKVLGADGSGQYSWIINGIEWAIANNMDVINMSLGGPSGSAALKAAVDKAVASGVVVVAAAGNEGTSGSSSTVGYPGKYPSVIAVGAVDSSNQRASFSSVGPELDVMAPGVSIQSTLPGNKYGAYNGTSMASPHVAGAAALILSKHPNWTNTQVRSSLENTTTKLGDSFYYGKGLINVQAAAQ
Production of the tripeptides Ile-Pro-Pro and Val-Pro-Pro [6]: No

B4: Trypsin (Type I): proteinase, bovine pancreas, Sigma Chemical Co. (protein, UniProt P00760 24-246, looked up)
Serine protease 1: IVGGYTCGANTVPYQVSLNSGYHFCGGSLINSQWVVSAAHCYKSGIQVRLGEDNINVVEGNEQFISASKSIVHPSYNSNTLNNDIMLIKLKSAASLNSRVASISLPTSCASAGTQCLISGWGNTKSSGTSYPDVLKCLKAPILSDSSCKSAYPGQITSNMFCAGYLEGGKDSCQGDSGGPVVCSGKLQGIVSWGSGCAQKNKPGVYTKVCNYVSWIKQTIASN
Production of the tripeptides Ile-Pro-Pro and Val-Pro-Pro [6]: No
